Measurements reported in patent publication US20090214459A1, “METHOD OF USING CERTAIN CATIONIC POLYMERS AS ANTIOXIDANTS OR FREE-RADICAL SCAVENGERS” (priority 2008, published 2009).

System: HaCaT keratinocytes exposed to UVA
Experiment: Antioxidant/free-radical scavenging activity with respect to UVA oxidative stress induced on keratinocytes (DCFH-DA fluorescent probe)
Type: cell-based
Details: 30 μM, 24 hours pre-incubation, UVA 2 J/cm^2, DCF fluorescence
Procedure: Method for Evaluating the Antioxidant/Free-Radical Scavenging Activity of the Polymers of the Invention with Respect to a UVA Oxidative Stress Induced on Keratinocytes
The technique for evaluating the photoprotection was carried out according to a well-known method (J. of Photochemistry and Photobiology B: Biology 57 (2000) 102-112 TOBI et al: Glutathione modulates the level of free radicals produced in UVA irradiated cells). This technique used a fluorescent probe, a marker for intracellular global oxidative stress, 2′-7′-dichlorofluorescin diacetate (DCFH-DA).
The use of DCFH-DA as a marker of the oxidative stress rests on its physicochemical properties. It is an apolar and non-ionic molecule capable of diffusing through cell membranes. Once inside the cell, DCFH-DA will be hydrolysed by intracellular esterases to a non-fluorescent compound: DCFH or 2,7-dichlorofluorescin. In the presence of activated oxygen species, DCFH is rapidly oxidized to a highly fluorescent compound: DCF or 2,7-dichlorofluorescein.
Three compounds were tested: hexadimethrine chloride (MEXOMERE PO from Chimex corresponding to a polycondensate of formula (I)), citric acid and glycine (0.0001% w/v for the MEXOMERE PO, 30 μM for the citric acid and the glycine). […]
The fluorescence of DCF was evaluated immediately after the exposure to UVA, by spectrofluorimetry (excitation: 480 nm; emission: 530 nm).

| SMILES | level of protection (antioxidant efficacy with respect to UVA oxidative stress) [%] |
| --- | --- |
| O=C(O)CC(O)(CC(=O)O)C(=O)O [Citric acid, citric acid] | ~18 |
| NCC(=O)O [glycine] | ~15 |
